Assay results: patent US20230219904A1 (SYNGENTA CROP PROTECTION AG, priority 2020, published 2023)

What was measured:
Type in all cases: in vivo
Conditions in all cases: evaluated after 13 days
[1] = test system: Abutilon theophrasti (ABUTH); experiment: Pre-emergence herbicidal glasshouse test (Table B1)
In short: (§1)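 Damage was rated 13 days after treatment as percentage injury, binned on a five-point scale (5=80-100%; 4=60-79%; 3=40-59%; 2=20-39%; 1=0-19%). Plants in soil pots were sprayed at 500 g/h unless otherwise indicated, pre-emergence after one day or post-emergence after 8 days of cultivation.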

[2] = test system: Amaranthus retoflexus (AMARE); experiment: as above
In short: as §1

[3] = test system: Echinochloa crus-galh (ECHCG); experiment: as above
In short: as §1

[4] = test system: Ipomoea hederacea (IPOHE); experiment: as above
In short: as §1

[5] = test system: Setaria faberi (SETFA); experiment: as above
In short: as §1

[6] = test system: Abutilon theophrasti (ABUTH); experiment: Post-emergence herbicidal glasshouse test (Table B1)
In short: as §1

[7] = test system: Amaranthus retoflexus (AMARE); experiment: as above
In short: as §1

[8] = test system: Echinochloa crus-galh (ECHCG); experiment: as above
In short: as §1

[9] = test system: Ipomoea hederacea (IPOHE); experiment: as above
In short: as §1

[10] = test system: Setaria faberi (SETFA); experiment: as above
In short: as §1

| Compound | PRE Application ABUTH, percentage damage on five-point scale ([1]; applied at 500 g/h) | PRE Application AMARE, percentage damage on five-point scale ([2]; applied at 500 g/h) | PRE Application ECHCG, percentage damage on five-point scale ([3]; applied at 500 g/h) | PRE Application IPOHE, percentage damage on five-point scale ([4]; applied) | PRE Application SETFA, percentage damage on five-point scale ([5]; applied at 500 g/h) | POST Application ABUTH, percentage damage on five-point scale ([6]; applied at 500 g/h) | POST Application AMARE, percentage damage on five-point scale ([7]; applied at 500 g/h) | POST Application ECHCG, percentage damage on five-point scale ([8]; applied at 500 g/h) | POST Application IPOHE, percentage damage on five-point scale ([9]; applied at 500 g/h) | POST Application SETFA, percentage damage on five-point scale ([10]; applied at 500 g/h) | PRE Application ABUTH, percentage damage on five-point scale ([1]; applied at 125 g/ha) | PRE Application AMARE, percentage damage on five-point scale ([2]; applied at 125 g/ha) | PRE Application ECHCG, percentage damage on five-point scale ([3]; applied at 125 g/ha) | PRE Application IPOHE, percentage damage on five-point scale ([4]; applied at 125 g/ha) | PRE Application SETFA, percentage damage on five-point scale ([5]; applied at 125 g/ha) | POST Application ABUTH, percentage damage on five-point scale ([6]; applied at 125 g/ha) | POST Application AMARE, percentage damage on five-point scale ([7]; applied at 125 g/ha) | POST Application ECHCG, percentage damage on five-point scale ([8]; applied at 125 g/ha) | POST Application IPOHE, percentage damage on five-point scale ([9]; applied at 125 g/ha) | POST Application SETFA, percentage damage on five-point scale ([10]; applied at 125 g/ha) |
| --- | --- | --- | --- | --- | --- | --- | --- | --- | --- | --- | --- | --- | --- | --- | --- | --- | --- | --- | --- | --- |
| Cn1nnnc1NC(=O)c1ccc(OC(F)(F)F)c(NC(=O)C2CCC2)c1Cl [Compound 1.112] | 4 (4=60-79%) | 5 (5=80-100%) | 5 (5=80-100%) | 1 (1=0-19%) | 1 (1=0-19%) | 5 (5=80-100%) | 5 (5=80-100%) | 5 (5=80-100%) | 5 (5=80-100%) | 5 (5=80-100%) | – | – | – | – | – | – | – | – | – | – |
| Cn1nnnc1NC(=O)c1ccc(OC(F)(F)F)c(NC(=O)C(C)(C)C)c1Cl [Compound 1.107] | 5 (5=80-100%) | 5 (5=80-100%) | 5 (5=80-100%) | 4 (4=60-79%) | 5 (5=80-100%) | 5 (5=80-100%) | 5 (5=80-100%) | 5 (5=80-100%) | 5 (5=80-100%) | 5 (5=80-100%) | – | – | – | – | – | – | – | – | – | – |
| CC(C)C(=O)Nc1c(OC(F)(F)F)ccc(C(=O)Nc2nnnn2C)c1Cl [Compound 1.124] | 4 (4=60-79%) | 5 (5=80-100%) | 5 (5=80-100%) | 1 (1=0-19%) | 4 (4=60-79%) | 5 (5=80-100%) | 5 (5=80-100%) | 5 (5=80-100%) | 5 (5=80-100%) | 5 (5=80-100%) | – | – | – | – | – | – | – | – | – | – |
| Cc1nnc(NC(=O)c2ccc(OC(F)(F)F)c(N3CCCCC3=O)c2Cl)o1 [Compound 2.004] | 4 (4=60-79%) | 5 (5=80-100%) | 5 (5=80-100%) | 1 (1=0-19%) | 5 (5=80-100%) | 5 (5=80-100%) | 5 (5=80-100%) | 5 (5=80-100%) | 5 (5=80-100%) | 5 (5=80-100%) | – | – | – | – | – | – | – | – | – | – |
| CC(=O)Nc1c(OC(F)(F)C(F)F)ccc(C(=O)Nc2nnnn2C)c1Cl [Compound 1.031] | – | – | – | – | – | – | – | – | – | – | 4 (4=60-79%) | 5 (5=80-100%) | 4 (4=60-79%) | 3 (3=40-59%) | 3 (3=40-59%) | 4 (4=60-79%) | 4 (4=60-79%) | 4 (4=60-79%) | 4 (4=60-79%) | 4 (4=60-79%) |
| CCn1nnnc1NC(=O)c1ccc(OC(F)(F)F)c(NC(=O)C2CCC2)c1Cl [Compound 1.111] | 4 (4=60-79%) | 5 (5=80-100%) | 4 (4=60-79%) | 1 (1=0-19%) | 1 (1=0-19%) | 5 (5=80-100%) | 5 (5=80-100%) | 5 (5=80-100%) | 5 (5=80-100%) | 1 (1=0-19%) | – | – | – | – | – | – | – | – | – | – |
| Cc1nnc(NC(=O)c2ccc(OC(F)(F)F)c(NC(=O)C3CC3)c2Cl)o1 [Compound 1.115] | – | – | – | – | – | – | – | – | – | – | 4 (4=60-79%) | 4 (4=60-79%) | 5 (5=80-100%) | 2 (2=20-39%) | 4 (4=60-79%) | 4 (4=60-79%) | 3 (3=40-59%) | 4 (4=60-79%) | 4 (4=60-79%) | 4 (4=60-79%) |
| CC(=O)Nc1c(OC(F)F)ccc(C(=O)Nc2nnnn2C)c1Cl [Compound 1.090] | – | – | – | – | – | – | – | – | – | – | 5 (5=80-100%) | 5 (5=80-100%) | 5 (5=80-100%) | 4 (4=60-79%) | 4 (4=60-79%) | 4 (4=60-79%) | 4 (4=60-79%) | 4 (4=60-79%) | 4 (4=60-79%) | 4 (4=60-79%) |
| CC(=O)Nc1c(OCC(F)(F)F)ccc(C(=O)Nc2nnnn2C)c1Cl [Compound 1.018, 3-acetamido-2-chloro-N-(1-methyltetrazol-5-yl)-4-(2,2,2-trifluoroethoxy)benzamide] | 4 (4=60-79%) | 5 (5=80-100%) | 3 (3=40-59%) | 3 (3=40-59%) | 3 (3=40-59%) | 5 (5=80-100%) | 5 (5=80-100%) | 5 (5=80-100%) | 4 (4=60-79%) | 5 (5=80-100%) | – | – | – | – | – | – | – | – | – | – |
| CCC(=O)Nc1c(OC(F)(F)F)ccc(C(=O)Nc2nnnn2C)c1C(F)(F)F [Compound 1.082] | – | – | – | – | – | – | – | – | – | – | 5 (5=80-100%) | 5 (5=80-100%) | 5 (5=80-100%) | 3 (3=40-59%) | 4 (4=60-79%) | 4 (4=60-79%) | 4 (4=60-79%) | 3 (3=40-59%) | 4 (4=60-79%) | 4 (4=60-79%) |
| CNc1c(OC(F)(F)F)ccc(C(=O)Nc2nnnn2C)c1Cl [Compound 1.005] | 5 (5=80-100%) | 5 (5=80-100%) | 5 (5=80-100%) | 5 (5=80-100%) | 5 (5=80-100%) | 5 (5=80-100%) | 5 (5=80-100%) | 5 (5=80-100%) | 5 (5=80-100%) | 5 (5=80-100%) | – | – | – | – | – | – | – | – | – | – |
